# Results from patent US20130084640A1, “ANIMAL CELL CULTURE MEDIA COMPRISING NON ANIMAL OR PLANT DERIVED NUTRIENTS” (LIFE TECHNOLOGIES CORPORATION, priority 1999, published 2013).
# Test system: VERO cells
# Assay: VERO cell growth in basal medium with non-animal supplements (mean cell count over subcultures, RGE)
# Format: cell-based
# Experimental: No attachment factors or coating of the plastic surface are required for the culture of VERO cells. At 3 to 4 days the cells were removed using standard cell culture techniques. The surface of the culture was first washed with Dulbecco's Phosphate Buffered Saline (DPBS) and then 1.0 ml Trypsin-EDTA (Life Technologies, Inc., Rockville, Md.) was added. The digest was allowed to sit on the cell surface for 3 to 5 minutes or until the cells rounded up and began to detach from the surface of the flask. The cells were completely detached by vigorous agitation against the palm of the hand and then 1.5 ml of soybean trypsin inhibitor was added to quickly neutralize enzymatic activity. The cells were counted under the microscope using trypan blue straining solution and new cultures plated at 2.5×10^3 cells per 25 cm^2 flask. Incubation was at 37° C. in 5% CO^2 in air. The cultures were passaged for a total of 4 subcultures and the mean cells per subculture determined from the counts of the final 3 subcultures (P2+P3+P4[…]). Initial studies were designed to formulate a culture medium completely devoid of animal proteins that supports the culture of animal cells. To this end, enzymatic hydrolysates of a variety of non-animal sources were examined as supplements in the basal medium described in Example 1. Hydrolysates of wheat gluten (HYPEP 4301 I, designated below us “Wheat Hydrolysate 1”, and HYPEP 8382, designated below as “Wheat Hydrolysate 2”). soy (HY—SOY) and rice (HYPEP 5115), as well as an extract of baker's yeast (HY-YEST 444) were obtained from Quest International (Norwich, N.Y.) and were formulated into the basal medium of Example 1 at 200 mg/liter. […] To more closely examine their efficacy as supplements for the present media, rice hydrolysates were supplemented into basal media at differing concentrations. These media were then used to examine VERO cell growth as described above. Cell counts were compared to those obtained in basal medium that was unsupplemented (negative control) or to Earle's Modified Eagle's Medium (EMEM) supplemented with 5% fetal bovine serum (FBS; positive control). […] To examine additional sources of non-animal peptides and vitamins as supplements for the present media, extracts of yeast, soy and potato were obtained from Quest International (Norwich, N.Y.) and were supplemented into basal media at differing concentrations. Yeast extract (YE) was also examined as a co-supplement with rice hydrolysate. These media were then used to examine VERO cell growth as described above. Cell counts were compared to those obtained with EMEM supplemented with 5% FBS. […] RGE was calculated as described in Example 2. To more closely examine the use of yeast extract as a supplement in the present media, preparations of YE or an ultrafiltrate of YE (“YEU”) were supplemented into basal media in the presence or absence of 100 mg/liter of rice hydrolysate. These media were then used to examine VERO cell growth as described above. Cell counts were compared to those obtained in EMEM supplemented with 5% FBS (positive control). […] RGE was calculated as described in Example 2. […] These media were then used to examine VERO cell growth as described above. Cell counts were compared to those obtained in basal medium that was unsupplemented (negative control) or to EMEM supplemented with 5% FBS (positive control). […] RGE was calculated as described in Example 2. […] The results in this table represent the mean cells per 25 cm^2 flask in duplicate over 4 subcultures.
substance,measurement,setting,value
EGF: recombinant human EGF (epidermal growth factor),Mean Cell Count,"Table 6, 0.5 mg/L in basal medium",8.0 × 10^5
same,RGE,"Table 6, 0.5 mg/L, relative to 5% FBS control",34
same,Mean Cell Count,"Table 6, 1 mg/L in basal medium",11.4 × 10^5
same,RGE,"Table 6, 1 mg/L, relative to 5% FBS control",49
same,RGE,"Table 6, 5 mg/L, relative to 5% FBS control",51
same,Mean Cell Count,"Table 6, 10 mg/L in basal medium",22.6 × 10^5
same,Mean Cell Count,"Table 7, 5 mg/L",20.2 × 10^5
same,RGE,"Table 7, 5 mg/L, relative to 5% FBS control",76
same,Mean Cell Count,"Table 7, 6 mg/L",19.3 × 10^5
same,RGE,"Table 7, 6 mg/L, relative to 5% FBS control",73
same,Mean Cell Count,"Table 7, 7 mg/L",19.6 × 10^5
same,RGE,"Table 7, 7 mg/L, relative to 5% FBS control",74
same,Mean Cell Count,"Table 7, 8 mg/1.",21.0 × 10^5
same,RGE,"Table 7, 8 mg/1., relative to 5% FBS control",79
same,Mean Cell Count,"Table 7, 9 mg/L",20.7 × 10^5
same,RGE,"Table 7, 9 mg/L, relative to 5% FBS control",78
same,Mean Cell Count,"Table 7, 10 mg/L",19.5 × 10^5
same,RGE,"Table 7, 10 mg/L, relative to 5% FBS control",73
same,RGE,"Table 8, 5 mg/L, as % of 0 mg/L control",137%
same,Mean Cell Count,"Table 8, 5 mg/L, mean cells per 25 cm^2 flask in duplicate over 4 subcultures",7.0 × 10^5
same,RGE,"Table 8, 6 mg/L, as % of 0 mg/L control",118%
same,Mean Cell Count,"Table 8, 6 mg/L, over 4 subcultures",6.0 × 10^5
same,RGE,"Table 8, 7 mg/L, as % of 0 mg/L control",139%
same,Mean Cell Count,"Table 8, 7 mg/L, over 4 subcultures",7.1 × 10^5
same,RGE,"Table 8, 8 mg/L, as % of 0 mg/L control",143%
same,Mean Cell Count,"Table 8, 8 mg/L, over 4 subcultures",7.3 × 10^5
same,RGE,"Table 8, 9 mg/L, as % of 0 mg/L control",145%
same,Mean Cell Count,"Table 8, 9 mg/L, over 4 subcultures",7.4 × 10^5
same,RGE,"Table 8, 10 mg/L, as % of 0 mg/L control",133%
same,Mean Cell Count,"Table 8, 10 mg/L, over 4 subcultures",6.8 × 10^5
